Reference: PubChem BioAssay (NCI)
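GI50 marks 50% less growth. TGI is the concentration that stops growth completely.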

Tests used:
Assay in all cases: inhibition of tumour cell growth, NCI panel, 384-well format
UACC-257 melanoma = test system: UACC-257 melanoma
A498 renal = test system: A498 renal
M14 melanoma = test system: M14 melanoma
MDA-MB-231 breast = test system: MDA-MB-231 breast
SN12C renal = test system: SN12C renal
HL-60(TB) leukemia = test system: HL-60(TB) leukemia
OVCAR-8 ovarian = test system: OVCAR-8 ovarian
IGROV1 ovarian = test system: IGROV1 ovarian
HOP-92 NSCLC = test system: HOP-92 NSCLC
COLO 205 colon = test system: COLO 205 colon
CAKI-1 renal = test system: CAKI-1 renal
T-47D breast = test system: T-47D breast
MOLT-4 leukemia = test system: MOLT-4 leukemia
NCI/ADR-RES ovarian = test system: NCI/ADR-RES ovarian
HS 578T breast = test system: HS 578T breast
HCC-2998 colon = test system: HCC-2998 colon
SF-295 CNS = test system: SF-295 CNS
OVCAR-5 ovarian = test system: OVCAR-5 ovarian
OVCAR-3 ovarian = test system: OVCAR-3 ovarian
U251 glioblastoma = test system: U251 glioblastoma
KM12 colon = test system: KM12 colon
MDA-MB-468 breast = test system: MDA-MB-468 breast
DU-145 prostate = test system: DU-145 prostate
LOX IMVI melanoma = test system: LOX IMVI melanoma
TK-10 renal = test system: TK-10 renal
MCF7 breast = test system: MCF7 breast
ACHN renal = test system: ACHN renal
SF-539 CNS = test system: SF-539 CNS
HT29 colon = test system: HT29 colon
SK-OV-3 ovarian = test system: SK-OV-3 ovarian
HCT-15 colon = test system: HCT-15 colon
NCI-H460 NSCLC = test system: NCI-H460 NSCLC
SNB-19 CNS = test system: SNB-19 CNS
RPMI-8226 leukemia = test system: RPMI-8226 leukemia
EKVX NSCLC = test system: EKVX NSCLC
HCT-116 colon = test system: HCT-116 colon
NCI-H23 lung = test system: NCI-H23 lung
NCI-H226 lung = test system: NCI-H226 lung
NCI-H522 lung = test system: NCI-H522 lung
HOP-62 NSCLC = test system: HOP-62 NSCLC
BT-549 breast = test system: BT-549 breast
MALME-3M melanoma = test system: MALME-3M melanoma
RXF 393 renal = test system: RXF 393 renal
MDA-MB-435 melanoma = test system: MDA-MB-435 melanoma
SF-268 CNS = test system: SF-268 CNS
PC-3 prostate = test system: PC-3 prostate
SNB-75 CNS = test system: SNB-75 CNS
NCI-H322M lung = test system: NCI-H322M lung
OVCAR-4 ovarian = test system: OVCAR-4 ovarian
UACC-62 melanoma = test system: UACC-62 melanoma
SR leukemia = test system: SR leukemia
SK-MEL-5 melanoma = test system: SK-MEL-5 melanoma
A549 NSCLC = test system: A549 NSCLC
SK-MEL-28 melanoma = test system: SK-MEL-28 melanoma

Cc1c(Cn2c(C)nc3c(C(=O)O)cc(N4CCOCC4)cc32)cccc1C(F)(F)F was tested. Which GI50 (UACC-257 melanoma) did it give?
The GI50 was 56.3 µM.

And the TGI (UACC-257 melanoma)?
Its TGI is over 100 µM.

And the GI50 (A498 renal)?
The GI50 was 0.462 µM.

What about the TGI (A498 renal) of the same compound?
Its TGI is 8.29 µM.

And the GI50 (M14 melanoma)?
Its GI50 is 30.1 µM.

And the TGI (M14 melanoma)?
Its TGI is over 100 µM.

What about the GI50 (MDA-MB-231 breast) of the same compound?
Its GI50 is 97.2 µM.

And the TGI (MDA-MB-231 breast)?
The TGI was over 100 µM.

What about the GI50 (SN12C renal) of the same compound?
Its GI50 is 30.6 µM.

And the TGI (SN12C renal)?
Its TGI is over 100 µM.

And the GI50 (HL-60(TB) leukemia)?
The GI50 was 18.3 µM.

What about the TGI (HL-60(TB) leukemia) of the same compound?
The TGI was over 100 µM.

What about the GI50 (OVCAR-8 ovarian) of the same compound?
Its GI50 is 44.1 µM.

And the TGI (OVCAR-8 ovarian)?
Its TGI is over 100 µM.

What about the GI50 (IGROV1 ovarian) of the same compound?
Its GI50 is 64.4 µM.

And the TGI (IGROV1 ovarian)?
The TGI was over 100 µM.

And the GI50 (HOP-92 NSCLC)?
The GI50 was 72.7 µM.

And the TGI (HOP-92 NSCLC)?
Its TGI is over 100 µM.

And the GI50 (COLO 205 colon)?
The GI50 was 99.8 µM.

And the TGI (COLO 205 colon)?
The TGI was over 100 µM.

What about the GI50 (CAKI-1 renal) of the same compound?
Its GI50 is 57.7 µM.

What about the TGI (CAKI-1 renal) of the same compound?
The TGI was over 100 µM.

And the GI50 (T-47D breast)?
Its GI50 is over 100 µM.

And the TGI (T-47D breast)?
The TGI was over 100 µM.

What about the GI50 (MOLT-4 leukemia) of the same compound?
Its GI50 is 19.6 µM.

What about the TGI (MOLT-4 leukemia) of the same compound?
Its TGI is 41.4 µM.

What about the GI50 (NCI/ADR-RES ovarian) of the same compound?
Its GI50 is 3.1 µM.

What about the TGI (NCI/ADR-RES ovarian) of the same compound?
Its TGI is 11.1 µM.

And the GI50 (HS 578T breast)?
The GI50 was 82.8 µM.

And the TGI (HS 578T breast)?
Its TGI is over 100 µM.

What about the GI50 (HCC-2998 colon) of the same compound?
Its GI50 is 45.2 µM.

What about the TGI (HCC-2998 colon) of the same compound?
The TGI was over 100 µM.

What about the GI50 (SF-295 CNS) of the same compound?
The GI50 was 22.2 µM.

What about the TGI (SF-295 CNS) of the same compound?
Its TGI is over 100 µM.

What about the GI50 (OVCAR-5 ovarian) of the same compound?
Its GI50 is 52.4 µM.

What about the TGI (OVCAR-5 ovarian) of the same compound?
The TGI was over 100 µM.

And the GI50 (OVCAR-3 ovarian)?
Its GI50 is 39.3 µM.

What about the TGI (OVCAR-3 ovarian) of the same compound?
The TGI was over 100 µM.

And the GI50 (U251 glioblastoma)?
The GI50 was 48.8 µM.

What about the TGI (U251 glioblastoma) of the same compound?
Its TGI is over 100 µM.

What about the GI50 (KM12 colon) of the same compound?
Its GI50 is 73 µM.

What about the TGI (KM12 colon) of the same compound?
Its TGI is over 100 µM.

What about the GI50 (MDA-MB-468 breast) of the same compound?
Its GI50 is 49.2 µM.

And the TGI (MDA-MB-468 breast)?
The TGI was over 100 µM.

What about the GI50 (DU-145 prostate) of the same compound?
Its GI50 is 52.1 µM.

What about the TGI (DU-145 prostate) of the same compound?
The TGI was over 100 µM.

What about the GI50 (LOX IMVI melanoma) of the same compound?
Its GI50 is 33.1 µM.

What about the TGI (LOX IMVI melanoma) of the same compound?
The TGI was over 100 µM.

What about the GI50 (TK-10 renal) of the same compound?
Its GI50 is 35.2 µM.

What about the TGI (TK-10 renal) of the same compound?
The TGI was over 100 µM.

What about the GI50 (MCF7 breast) of the same compound?
Its GI50 is 59.9 µM.

And the TGI (MCF7 breast)?
Its TGI is over 100 µM.

And the GI50 (ACHN renal)?
Its GI50 is 20.8 µM.

What about the TGI (ACHN renal) of the same compound?
Its TGI is over 100 µM.

And the GI50 (SF-539 CNS)?
The GI50 was 54 µM.

And the TGI (SF-539 CNS)?
The TGI was over 100 µM.

What about the GI50 (HT29 colon) of the same compound?
Its GI50 is 54.7 µM.

What about the TGI (HT29 colon) of the same compound?
Its TGI is over 100 µM.

And the GI50 (SK-OV-3 ovarian)?
Its GI50 is 61.8 µM.

What about the TGI (SK-OV-3 ovarian) of the same compound?
The TGI was over 100 µM.

And the GI50 (HCT-15 colon)?
Its GI50 is 3.97 µM.

And the TGI (HCT-15 colon)?
The TGI was over 100 µM.

And the GI50 (NCI-H460 NSCLC)?
The GI50 was 33.9 µM.

And the TGI (NCI-H460 NSCLC)?
The TGI was over 100 µM.

What about the GI50 (SNB-19 CNS) of the same compound?
The GI50 was 89.1 µM.

What about the TGI (SNB-19 CNS) of the same compound?
The TGI was over 100 µM.

What about the GI50 (RPMI-8226 leukemia) of the same compound?
The GI50 was 46.7 µM.

And the TGI (RPMI-8226 leukemia)?
The TGI was over 100 µM.

What about the GI50 (EKVX NSCLC) of the same compound?
Its GI50 is 58.1 µM.

And the TGI (EKVX NSCLC)?
Its TGI is over 100 µM.

What about the GI50 (HCT-116 colon) of the same compound?
Its GI50 is 38.2 µM.

What about the TGI (HCT-116 colon) of the same compound?
Its TGI is over 100 µM.

What about the GI50 (NCI-H23 lung) of the same compound?
The GI50 was 85.8 µM.

And the TGI (NCI-H23 lung)?
Its TGI is over 100 µM.

And the GI50 (NCI-H226 lung)?
The GI50 was 64.9 µM.

And the TGI (NCI-H226 lung)?
The TGI was over 100 µM.

And the GI50 (NCI-H522 lung)?
Its GI50 is 75.6 µM.

What about the TGI (NCI-H522 lung) of the same compound?
The TGI was over 100 µM.

And the GI50 (HOP-62 NSCLC)?
The GI50 was 24.5 µM.

And the TGI (HOP-62 NSCLC)?
Its TGI is over 100 µM.

What about the GI50 (BT-549 breast) of the same compound?
The GI50 was 67.4 µM.

What about the TGI (BT-549 breast) of the same compound?
Its TGI is over 100 µM.

And the GI50 (MALME-3M melanoma)?
The GI50 was over 100 µM.

What about the TGI (MALME-3M melanoma) of the same compound?
The TGI was over 100 µM.

What about the GI50 (RXF 393 renal) of the same compound?
The GI50 was 14.6 µM.

And the TGI (RXF 393 renal)?
Its TGI is over 100 µM.

And the GI50 (MDA-MB-435 melanoma)?
Its GI50 is 75 µM.

And the TGI (MDA-MB-435 melanoma)?
Its TGI is over 100 µM.

And the GI50 (SF-268 CNS)?
The GI50 was 70.6 µM.

And the TGI (SF-268 CNS)?
Its TGI is over 100 µM.

And the GI50 (PC-3 prostate)?
Its GI50 is 26.9 µM.

What about the TGI (PC-3 prostate) of the same compound?
Its TGI is over 100 µM.

What about the GI50 (SNB-75 CNS) of the same compound?
Its GI50 is 63.4 µM.

And the TGI (SNB-75 CNS)?
The TGI was over 100 µM.

What about the GI50 (NCI-H322M lung) of the same compound?
The GI50 was 60.9 µM.

What about the TGI (NCI-H322M lung) of the same compound?
The TGI was over 100 µM.

What about the GI50 (OVCAR-4 ovarian) of the same compound?
The GI50 was 31.8 µM.

And the TGI (OVCAR-4 ovarian)?
The TGI was over 100 µM.

What about the GI50 (UACC-62 melanoma) of the same compound?
Its GI50 is 75.8 µM.

And the TGI (UACC-62 melanoma)?
Its TGI is over 100 µM.

And the GI50 (SR leukemia)?
The GI50 was 18.5 µM.

And the TGI (SR leukemia)?
The TGI was 40.8 µM.

What about the GI50 (SK-MEL-5 melanoma) of the same compound?
The GI50 was 18 µM.

And the TGI (SK-MEL-5 melanoma)?
The TGI was 57.8 µM.

What about the GI50 (A549 NSCLC) of the same compound?
The GI50 was 62.1 µM.

And the TGI (A549 NSCLC)?
The TGI was over 100 µM.

And the GI50 (SK-MEL-28 melanoma)?
The GI50 was over 100 µM.

What about the TGI (SK-MEL-28 melanoma) of the same compound?
Its TGI is over 100 µM.
